Results as given in ChEMBL document CHEMBL1201862, “PubChem BioAssay data set” (2004).
Calls of active or inactive are those of the source. Rule as the data show it: actives have a measured IC50 and inactives only a lower limit.

Target: Envelope glycoprotein gp160 (Human immunodeficiency virus 1, UniProt Q6QLK5)
Experiment: inhibitors of HIV fusion peptide binding, primary screen, biochemical, uHTS, fluorescence dequenching (AID 1986)

Chain of Envelope glycoprotein gp160 (Q6QLK5 whole entry, the tested form may be a part): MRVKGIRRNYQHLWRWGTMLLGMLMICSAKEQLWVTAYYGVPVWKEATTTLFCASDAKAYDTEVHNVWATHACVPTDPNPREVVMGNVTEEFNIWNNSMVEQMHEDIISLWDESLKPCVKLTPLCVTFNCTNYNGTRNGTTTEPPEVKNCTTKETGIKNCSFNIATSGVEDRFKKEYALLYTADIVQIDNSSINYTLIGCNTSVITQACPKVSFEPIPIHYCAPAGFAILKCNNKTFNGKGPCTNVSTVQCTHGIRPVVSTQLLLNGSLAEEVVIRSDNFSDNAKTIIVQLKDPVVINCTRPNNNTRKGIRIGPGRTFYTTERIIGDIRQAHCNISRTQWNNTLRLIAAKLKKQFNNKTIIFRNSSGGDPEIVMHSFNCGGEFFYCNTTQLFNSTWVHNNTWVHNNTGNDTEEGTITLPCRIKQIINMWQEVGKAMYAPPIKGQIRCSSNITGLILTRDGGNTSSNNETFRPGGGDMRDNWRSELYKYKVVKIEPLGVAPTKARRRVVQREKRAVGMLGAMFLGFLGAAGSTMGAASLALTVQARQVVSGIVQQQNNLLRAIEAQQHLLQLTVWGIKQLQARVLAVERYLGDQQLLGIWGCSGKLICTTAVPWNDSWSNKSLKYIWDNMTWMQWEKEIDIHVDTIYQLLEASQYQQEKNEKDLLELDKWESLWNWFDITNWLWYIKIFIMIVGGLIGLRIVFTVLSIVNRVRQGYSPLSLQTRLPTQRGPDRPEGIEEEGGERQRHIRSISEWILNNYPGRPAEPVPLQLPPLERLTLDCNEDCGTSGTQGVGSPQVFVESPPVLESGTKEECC

In the case of `Oc1c(Br)cc(Br)c(/C=N/n2c(S)nnc2-c2ccccc2)c1Br`, the IC50 is reported as 12 µM (active).
